From ChEMBL document CHEMBL4177754, “Targeting Tyrosinase: Development and Structural Insights of Novel Inhibitors Bearing Arylpiperidine and Arylpiperazine Fragments” (J Med Chem, 2018)
The source made the active and inactive calls. The rule behind the calls is not given here.

What was measured:
Tyrosinase = target: T1, Tyrosinase (Agaricus bisporus, UniProt O42713); assay: Inhibition of mushroom tyrosinase diphenolase activity using L-DOPA as substrate preincubated with substrate for 10 mins followed by protein addition measured after 5 mins by spectrophotometric method
T1 sequence (O42713 whole entry): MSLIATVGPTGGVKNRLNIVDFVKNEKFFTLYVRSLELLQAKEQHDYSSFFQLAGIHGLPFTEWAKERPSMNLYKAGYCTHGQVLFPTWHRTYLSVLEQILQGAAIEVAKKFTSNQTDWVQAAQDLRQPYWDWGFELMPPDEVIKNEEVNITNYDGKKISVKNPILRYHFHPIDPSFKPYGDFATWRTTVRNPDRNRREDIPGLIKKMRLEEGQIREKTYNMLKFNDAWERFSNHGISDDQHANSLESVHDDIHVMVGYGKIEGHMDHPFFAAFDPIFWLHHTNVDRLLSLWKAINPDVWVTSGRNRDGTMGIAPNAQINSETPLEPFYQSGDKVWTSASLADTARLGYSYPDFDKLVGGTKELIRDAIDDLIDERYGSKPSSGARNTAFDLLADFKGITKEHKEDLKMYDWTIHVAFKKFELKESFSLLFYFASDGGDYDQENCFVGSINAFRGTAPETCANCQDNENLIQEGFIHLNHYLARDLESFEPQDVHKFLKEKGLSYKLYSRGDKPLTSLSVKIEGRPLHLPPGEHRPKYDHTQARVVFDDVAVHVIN

[1] = target: T2, Tyrosinase (Agaricus bisporus) (UniProt O42713); assay: Non-competitive inhibition of mushroom tyrosinase diphenolase activity at 2 to 8 uM using L-DOPA as substrate preincubated with substrate for 30 mins followed by protein addition measured after 5 mins by Lineweaver-Burk double-reciprocal plot analysis
T2 sequence (whole entry): T1 sequence (O42713 whole entry)

Row | SMILES | IC50 (Tyrosinase) | inhibition [1]
1 | Cc1ccc(C(=O)N2CCN(Cc3ccc(F)cc3)CC2)cc1 | 33.1 µM | 
2 | O=C(c1cccc(F)c1)N1CCN(Cc2ccc(F)cc2)CC1 | 54.7 µM | 
3 | COc1ccc(C(=O)N2CCN(Cc3ccc(F)cc3)CC2)cc1 | 9.14 µM | 
4 | O=C(c1ccccc1)N1CCN(Cc2ccc(F)cc2)CC1 | 13.3 µM | 
5 | COc1cccc(C(=O)N2CCN(Cc3ccc(F)cc3)CC2)c1 | 27 µM | 
6 | COc1ccccc1C(=O)N1CCN(Cc2ccc(F)cc2)CC1 | 2.03 µM | Active
7 | Cc1cccc(C(=O)N2CCN(Cc3ccc(F)cc3)CC2)c1 | 174 µM | 
8 | O=C(c1ccccc1F)N1CCN(Cc2ccc(F)cc2)CC1 | 3.75 µM | 
9 | CC(=O)N1CCC(Cc2ccc(F)cc2)CC1 | 25.1 µM | 
10 | O=C(c1ccc(O)cc1)N1CCN(Cc2ccc(F)cc2)CC1 | 27.4 µM | 
11 | CC(C)C(=O)N1CCN(Cc2ccc(F)cc2)CC1 | 30.9 µM | 
12 | CCC(=O)N1CCN(Cc2ccc(F)cc2)CC1 | 51.1 µM | 
13 | O=C(c1ccccc1)N1CCC(Cc2ccc(F)cc2)CC1 | 19.5 µM | 
14 | O=C(c1ccc(F)cc1)N1CCN(Cc2ccc(F)cc2)CC1 | 7.77 µM | 
15 | Fc1ccc(CN2CCNCC2)cc1 | 85.5 µM | 
16 | O=C(c1ccccc1O)N1CCN(Cc2ccc(F)cc2)CC1 | 7.06 µM | 
17 | O=C(c1cccc(O)c1)N1CCN(Cc2ccc(F)cc2)CC1 | 12.6 µM | 
18 | CC(C)C(=O)N1CCC(Cc2ccc(F)cc2)CC1 | 35.3 µM | 
19 | Cc1ccccc1C(=O)N1CCN(Cc2ccc(F)cc2)CC1 | 5.25 µM | 
20 | CCC(=O)N1CCC(Cc2ccc(F)cc2)CC1 | 24.1 µM | 
21 | CC(=O)N1CCN(Cc2ccc(F)cc2)CC1 | 45.9 µM | 
